In patent US10435400B2, “2,4-disubstituted phenylene-1,5-diamine derivatives and applications thereof, and pharmaceutical compositions and pharmaceutically acceptable compositions prepared therefrom” (SHANGHAI HAIYAN PHARMACEUTICAL TECHNOLOGY CO., LTD., priority 2014, dated 2019):
Where two headings read alike, the source gives them in different places.

Tests used:
H1975 cells [1] = assay: Cytostatic activity by MTT method, H1975 cells; format: cell-based; conditions: for IC50: read-out: H1975 cells (IC50/nM); for selective inhibitory activity against the cell growth [IC50 (A431 cells)/IC50 (H1975 cells)]: ratio of IC50 values
Procedure: MTT assay used the method well known to those skilled in the art, and the reagents used in the method can be commercially obtained. […] After rinsed for one time, 1.5 ml trypsin/EDTA was added to digest the adherent cells until the cells detached, and then 3.5 ml of medium was added to terminate the trypsinization. The digested cell suspension was transferred to a 15 ml falcon tube, and spun at 1300 rpm for 3 min, the supernatant was discarded, and cells were suspended in fresh medium. […] The plates were spun at 2000 rpm for 5 min.

A431 cells [2] = assay: Cytostatic activity by MTT method, A431 cells; conditions: read-out: A431 cells (IC50/nM);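 also: viability read by MTT reduction after compound exposure, with MTT incubated for a further 4 h at 37 °C under 5% CO2 in 96-well plates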
Procedure: (§6) After rinsed for one time, 1.5 ml trypsin/EDTA was added to digest the adherent cells until the cells detached, and then 3.5 ml of medium was added to terminate the trypsinization. The digested cell suspension was transferred to a 15 ml falcon tube, and spun at 1300 rpm for 3 min, the supernatant was discarded, and cells were suspended in fresh medium.
(§7) The cells were added into the incubator after addition of the test compound, and incubated for 72 h, 10 μl of 5 mg/ml MTT (Sigma, M5655) solution was added to each well of the plate, and incubated the 96-well plates at 37° C. 5% CO2 for 4 h in a incubator.
(§8) The plates were spun at 2000 rpm for 5 min.

NIH3T3 cells = assay: Cytotoxicity by MTT method, NIH3T3 cells; format: cell-based; conditions: read-out: NIH3T3 cells MTT assay (IC50/nM);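 also: cells grown in 96-well plates with compound for 72 h, then given MTT for a further 4 h at 37 °C under 5% CO2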
Procedure: as §6, §7, §8

[3] = In vivo pharmacokinetic test in mice; conditions: male, CD1, mouse, plasma; for clearance / half-life: IV 1 mg/kg; for clearance: read-out: Clearance CL; for half-life: read-out: Half-life T½ (converted); for bioavailability: oral gavage 5 mg/kg vs IV 1 mg/kg, read-out: Oral relative bioavailability F; for AUC / Cmax: route not given (IV 1 mg/kg, oral gavage 5 mg/kg); for AUC: read-out: Area under the curve AUC; for Cmax: read-out: Maximum plasma concentration Cmax
Source text: (§1) LC/MS/MS method was applied for the determination of the drug concentration in plasma at different times after the example compounds were orally and intravenously administered to rats or mice in order to study the pharmacokinetic behavior of the compounds of the invention in vivo in rats or mice and evaluate their pharmacokinetic characteristics.
(§2) Test Animals: healthy Adult male SD rats (weight 200-300 g, 6, fasted) or male CD1 mice (weight 20-30 g, 18, free access to water and food), provided by SLAC company;
(§3) Administration and Dosage: (1 mg/kg, 5 ml/kg, 5% DMAC (dimethylacetamide), 5% Solutol HS 15 (polyethylene glycol-15 hydroxystearate) and 90% saline was intravenously administered via foot dorsal vein and (20 mg/kg, 10 ml/kg, 0.5% CMC-Na solution) was administered via oral gavage to SD rats; (1 mg/kg, 5 ml/kg, 5% DMAC, 5% Solutol HS 15 and 90% Saline) was administered intravenously via tail vein and (5 mg/kg, 10 mL/kg, 0.5% CMC-Na aqueous solution) was administered via oral gavage to CD1 mice.
(§4) Blood collection: firstly, the animals which were selected to meet the test requirements prior to administration were weighed. The rats or mice were bound before the blood collection, blood from each administered rat was taken at predetermined time points (intravenous administration: blood was collected at 0.083, 0.25, 0.5, 1, 2, 4, 8, 24 h before and after administration respectively, 9 time points in total; gavage: blood was collected at 0.083, 0.25, 0.5, 1, 2, 4, 8, 24 h before and after administration respectively, 9 time points in total), about 150 μl of blood was collected via tail vein or heart (blood terminal). Blood from each administered mouse was taken blood at predetermined time points (tail vein: blood was collected at 0.083, 0.25, 0.5, 1, 2, 4, 8, 24 h, 8 time points in total; gavage: blood was collected at 0.25, 0.5, 1, 2, 4, 8, 24 h, 7 time points in total), about 150 μl of blood was collected via orbital or heart (blood terminal). Blood was transferred to a 1.5 ml tube to which K2EDTA was added previously. The collected blood sample was put on ice, and centrifuged to obtain plasma sample (2000 g, 5 min under 4° C.) within 15 minutes. All the plasma samples were stored at approximately −70° C. until analysis.
(§5) LC/MS/MS method was applied to determine the concentrations of the drug. At the same dose and administration, pharmacokinetic parameters of some example compounds of the invention in rats and mice were shown in Table 9: […]

A431 cells [4] = assay: ELISA cell activity, EGF-stimulated A431 cells; format: cell-based;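 also: Serum-starved A431 cells pretreated with compound for 1 h, then stimulated with EGF for 45 min, lysates read by ELISA (OD450 minus OD570), EGF-only wells as control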
Procedure: (§9) The reagents, preparation methods of the solution, as well as the procedures of cell treatments and preparation of lysate, and the test steps of ELISA in the following method were conducted according to the instructions of R&D DYC3570, R&D DYC1095E and R&D DYC1095BE.
(§10) Cell lysates: cell lysis buffer+10 μg/ml Aprotinin (Sigma), 10 μg/ml Leupeptin (Sigma). All reagents were prepared when using.
(2) The medium of A431 cells was changed to 90 ul of DMEM FBS free medium, and incubated overnight.
(3) The test compounds were diluted according to the method in MTT assay, 10 μl of diluted compound or DMSO was added to the corresponding plate well, and incubated at 37° C. with 5% CO2 for 1 h. The final concentration of DMSO was 0.5%. 10 μl of 2 μg/L EGF was then added to each well except the cell control well, 10 μl of FBS free DMEM was added to the well, and incubated for 45 minutes; the EGF-free and compound treatment-free cells were used as cell control, and the compound treatment-free but only EGF-treated cells were used as EGF control.
(4) 100 μl cell lysate was added after aspirating the medium, sealed and placed in refrigerator at −80° C. overnight.
The assay was operated according to the instructions of R&D DYC3570E.
(§11) (5) 40 μl of cell lysis buffer and 60 μl of cell lysates were added, and incubated at 25° C. for 2 h under shaking;
(7) Detection antibody was diluted according to a predetermined ratio of kit instruction by using IC dilution, and 100 μl of the diluted Detection Antibody was added to each well, and incubated at 25° C. for 1 h under shaking in darkness;
(9) reagent A and reagent B of TMB substrate (R & D DY999) were mixed at 1:1, 100 μl of substrate was added to each well, and incubated at 25° C. for 20 minutes under shaking in darkness;
(11) The OD450 values and OD570 values of the cell control, blank control and compound treatment were measured respectively by using microplate reader (Thermo Multiskan K3), and the corresponding OD570 values were subtracted from OD450 values of the same wells to get the ODEGF, ODcompound and ODcell respectively.

[5] = In vivo pharmacokinetic test in rats; conditions: male, SD, rat, plasma; for clearance / half-life: IV 1 mg/kg; for clearance: read-out: Clearance CL; for half-life: read-out: Half-life T½ (converted); for bioavailability: oral gavage 20 mg/kg vs IV 1 mg/kg, read-out: Oral relative bioavailability F; for AUC / Cmax: route not given (IV 1 mg/kg, oral gavage 20 mg/kg); for AUC: read-out: Area under the curve AUC; for Cmax: read-out: Maximum plasma concentration Cmax
Source text: as §1, §2, §3, §4, §5

H1975 cells [6] = assay: ELISA screening EGFR T790M inhibitor for cell activity, H1975 cells; format: cell-based; conditions: for IC50: read-out: H1975 cells (IC50/nM); for Selective inhibitory activities of target on cellular level [IC50 (A431 cells)/IC50 (H1975 cells)]: ratio of IC50 values
Procedure: as §9, §10
(2) The test compounds were diluted according to the method in MTT assay, and 10 μl of diluted compound or DMSO was added to the corresponding plate well, and incubated at 37° C. with 5% CO2 for 1 h. The final concentration of DMSO was 0.5%. Cell culture system merely treated with DMSO was used as cell control.
(3) 100 μl cell lysate was added after aspirating the medium, sealed and placed in a refrigerator at −80° C. overnight. Cell lysis buffer used as blank control.
The assay was operated according to the instructions of R&D DYC1095E or R&D DYC1095BE.
as §11
(7) Detection antibody was diluted according to a predetermined ratio as stipulated in kit instructions by using IC diluent, and 100 μl of the diluted Detection Antibody was added to each well, and incubated at 25° C. for 1 h under shaking in darkness;
(9) reagent A and reagent B of TMB substrate (R & D DY999) were mixed with 1:1, and 100 μl of substrate was added to each well, and incubated at 25° C. for 20 minutes under shaking in darkness;
(11) The OD450 values and OD570 values of the cell control, blank control and compound treatment were measured respectively by using microplate reader (Thermo Multiskan K3), and the corresponding OD570 values were subtracted from OD450 values of the same wells to get the ODcell, ODblank and ODcompound treatment respectively.
2.3 Data Analysis Inhibition ratio (%)=100%×(ODcell−ODcompound treatment)(ODcell−ODblank)

EGFR WT kinase = EGFR WT kinase (Homo sapiens (Human), UniProt P00533); assay: Wild type EGFR kinase inhibition test (z-lyte); format: biochemical; conditions: 10 μM ATP
Chain of EGFR WT kinase (P00533 25-1210): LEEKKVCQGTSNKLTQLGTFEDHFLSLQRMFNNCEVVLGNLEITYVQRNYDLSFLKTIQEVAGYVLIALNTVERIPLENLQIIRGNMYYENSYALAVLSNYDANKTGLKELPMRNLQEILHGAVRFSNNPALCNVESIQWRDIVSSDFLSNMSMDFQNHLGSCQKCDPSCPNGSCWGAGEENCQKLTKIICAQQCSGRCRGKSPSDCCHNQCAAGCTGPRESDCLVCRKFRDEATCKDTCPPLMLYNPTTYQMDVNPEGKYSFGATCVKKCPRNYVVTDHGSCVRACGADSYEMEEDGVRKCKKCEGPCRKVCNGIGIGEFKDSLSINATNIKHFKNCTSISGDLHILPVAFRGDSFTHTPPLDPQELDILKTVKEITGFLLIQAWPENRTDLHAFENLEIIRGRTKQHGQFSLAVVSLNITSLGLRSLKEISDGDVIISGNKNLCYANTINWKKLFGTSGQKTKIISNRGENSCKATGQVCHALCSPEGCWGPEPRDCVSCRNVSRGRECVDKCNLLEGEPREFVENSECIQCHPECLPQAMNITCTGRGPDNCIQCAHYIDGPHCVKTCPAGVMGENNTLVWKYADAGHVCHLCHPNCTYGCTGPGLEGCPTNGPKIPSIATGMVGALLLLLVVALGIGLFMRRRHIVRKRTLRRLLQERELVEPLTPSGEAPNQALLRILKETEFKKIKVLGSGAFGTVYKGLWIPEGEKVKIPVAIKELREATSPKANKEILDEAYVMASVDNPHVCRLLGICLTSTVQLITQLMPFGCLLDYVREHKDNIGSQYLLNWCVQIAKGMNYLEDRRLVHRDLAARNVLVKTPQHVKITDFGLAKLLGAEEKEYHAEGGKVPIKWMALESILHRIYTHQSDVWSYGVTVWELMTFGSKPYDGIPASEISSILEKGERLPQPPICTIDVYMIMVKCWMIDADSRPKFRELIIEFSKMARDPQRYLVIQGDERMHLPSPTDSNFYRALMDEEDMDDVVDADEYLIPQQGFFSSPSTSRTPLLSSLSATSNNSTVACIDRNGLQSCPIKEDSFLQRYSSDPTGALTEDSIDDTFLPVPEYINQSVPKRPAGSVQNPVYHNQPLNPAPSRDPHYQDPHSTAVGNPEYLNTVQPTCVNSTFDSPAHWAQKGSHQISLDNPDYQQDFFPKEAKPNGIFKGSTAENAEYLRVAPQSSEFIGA

[7] = system: T790M mutant cell line H1975; conditions: background statement; almost no activity; cited from earlier work
[8] = Homo sapiens, NCI-H1975, MTT, 72 h
[9] = Mus musculus, NIH3T3, cytotoxicity, MTT, 72 h
[10] = Homo sapiens, A-431, ELISA, compound 1 h then EGF 45 minutes, read-out: A431 cells (IC50/nM)
[11] = Homo sapiens, NCI-H1975, ELISA, compound 1 h
[12] = ELISA, compound 1 h then EGF 45 minutes, read-out: A431 cells (IC50/nM)

| SMILES | IC50 (H1975 cells [1]; [8]) | IC50 (A431 cells [2]; Homo sapiens, A-431, 72 h) | IC50 (NIH3T3 cells; [9]) | IC50 (A431 cells [4]; [10]) | IC50 (H1975 cells [6]; [11]) | selective inhibitory activity against the cell growth [IC50 (A431 cells)/IC50 (H1975 cells)] (H1975 cells [1]; MTT) | IC50 (EGFR WT kinase) | Selective inhibitory activities of target on cellular level [IC50 (A431 cells)/IC50 (H1975 cells)] (H1975 cells [6]; ELISA) | IC50 (H1975 cells [1]; MTT, 72 h) | IC50 (A431 cells [2]; MTT, 72 h) | IC50 (NIH3T3 cells; cytotoxicity, MTT, 72 h) | IC50 (A431 cells [4]; [12]) | IC50 (H1975 cells [6]; ELISA, compound 1 h) | also measured |
| --- | --- | --- | --- | --- | --- | --- | --- | --- | --- | --- | --- | --- | --- | --- |
| C=CC(=O)Nc1cc(Nc2ncc(Cl)c(-c3cnn(C)c3)n2)c(OC)cc1N1CCC(N(C)C)CC1 [Compound Z-89, N-(5-(5-chloro-4-(1-methyl-1H-pyrazol-4-yl)pyrimidin-2-ylamino)-2-(4-(dimethylamino)piperidin-1-yl)-4-methoxyphenyl)acrylamide] | 19 nM | 1730 nM | 4040 nM | 4790 nM | 15 nM | – | – | – | – | – | – | – | – | clearance [3]: 47.7 mL/min/kg; half-life [3]: 4.43 h; bioavailability [3]: 59.7%; AUC [3]: 1040 ng·h/mL; Cmax [3]: 85.3 ng/mL; clearance [5]: 43.5 mL/min/kg; half-life [5]: 7.05 h; bioavailability [5]: 102%; AUC [5]: 7190 ng·h/mL; Cmax [5]: 437 ng/mL |
| C=CC(=O)Nc1cc(Nc2ncc(F)c(-c3cnn(C)c3)n2)c(OC)cc1N1CCC(N(C)C)CC1 [Compound Z-90, N-(2-(4-(dimethylamino)piperidin-1-yl)-5-(5-fluoro-4-(1-methyl-1H-pyrazol-4-yl)pyrimidin-2-ylamino)-4-methoxyphenyl)acrylamide] | 17 nM | 2390 nM | > 10000 nM | 1690 nM | 34 nM | 140.6 | 102 nM | 50 | – | – | – | – | – | clearance [3]: 65.5 mL/min/kg; half-life [3]: 4.65 h; bioavailability [3]: 66.4%; AUC [3]: 657 ng·h/mL; Cmax [3]: 90.6 ng/mL; clearance [5]: 43.9 mL/min/kg; half-life [5]: 7.02 h; bioavailability [5]: 92.6%; AUC [5]: 6480 ng·h/mL; Cmax [5]: 408 ng/mL |
| C=CC(=O)Nc1cc(Nc2ncc(Cl)c(-c3cn(C)nc3C)n2)c(OC)cc1N1CCC(N(C)C)CC1 [Compound Z-95, N-(5-(5-chloro-4-(1,3-dimethyl-1H-pyrazol-4-yl)pyrimidin-2-ylamino)-2-(4-(dimethylamino)piperidin-1-yl)-4-methoxyphenyl)acrylamide] | 45 nM | 5450 nM | > 10000 nM | 4960 nM | 41 nM | 121.1 | 328 nM | 121 | – | – | – | – | – | – |
| C=CC(=O)Nc1cc(Nc2ncc(Cl)c(-c3ccn(C)c3)n2)c(OC)cc1N(C)CCN(C)C [Compound Z-99, N-(5-(5-chloro-4-(1-methyl-1H-pyrrol-3-yl)pyrimidin-2-ylamino)-2-((2-(dimethylamino)ethyl)(methyl)amino)-4-methoxyphenyl)acrylamide] | 40 nM | 1040 nM | 5990 nM | 663 nM | 57 nM | 26 | 38 nM | 11.6 | – | – | – | – | – | – |
| C=CC(=O)Nc1cc(Nc2ncc(Cl)c(-c3cnn(C)c3)n2)c(OC)cc1N1CCN(C)CC1 [Compound Z-100, N-(5-(5-chloro-4-(1-methyl-1H-pyrazol-4-yl)pyrimidin-2-ylamino)-4-methoxy-2-(4-methylpiperazin-1-yl)phenyl)acrylamide] | 24 nM | 1230 nM | 3880 nM | 8430 nM | 24 nM | 51.1 | 297 nM | 351.2 | – | – | – | – | – | – |
| C=CC(=O)Nc1cc(Nc2nccc(-c3cnc4c(ccn4C)c3)n2)c(OC)cc1N(C)CCN(C)C(C)C [Compound Z-115] | – | – | – | – | – | 66 | 22 nM | 5.2 | 38 nM | 2500 nM | > 10000 nM | 469 nM | 90 nM | – |
| C=CC(=O)Nc1cc(Nc2nccc(-c3cnc4c(ccn4C)c3)n2)c(OC)cc1OCCN(C)C [Compound Z-117] | – | – | – | – | – | 68.5 | 8 nM | 9.1 | 19 nM | 1300 nM | > 10000 nM | 164 nM | 18 nM | – |
| C=CC(=O)Nc1cc(Nc2ncc(Cl)c(-c3cnc4c(ccn4C(C)C)c3)n2)c(OC)cc1N(C)CCN(C)C [Compound Z-125] | – | – | – | – | – | 101.2 | 14 nM | 6.2 | 13 nM | 1320 nM | 4660 nM | 291 nM | 47 nM | – |
| C=CC(=O)Nc1cc(Nc2ncc(Cl)c(-c3cnc4c(ccn4C4CC4)c3)n2)c(OC)cc1N(C)CCN(C)C [Compound Z-126] | – | – | – | – | – | 49.5 | 7 nM | 11.5 | 10 nM | 495 nM | 4910 nM | 229 nM | 20 nM | – |
| C=CC(=O)Nc1cc(Nc2nccc(-c3cn(C)c4ccccc34)n2)c(OC)cc1N(C)CCN(C)C [comparative compound 1, reference compound] | – | […] | – | – | – | – | – | – | – | – | – | – | – | IC50 (H1975 cells [1]; Homo sapiens, NCI-H1975, 72 h): 13 nM; IC50 (NIH3T3 cells; Mus musculus, NIH3T3, 72 h): 3550 nM; half-life [3]: 1.99 h; bioavailability [3]: 30.2%; IC50 (A431 cells [4]; Homo sapiens, A-431, read-out: A431 cells (IC50/nM)): […]; half-life [5]: 8.28 h; bioavailability [5]: 18.5%; IC50 (H1975 cells [6]; Homo sapiens, NCI-H1975, 1 h): 29 nM |
| C#Cc1cccc(Nc2ncnc3cc(OCCOC)c(OCCOC)cc23)c1 [erlotinib] | – | – | – | – | – | – | – | – | – | – | – | – | – | activity in T790M mutant cell line H1975 [7]: greater than 3 uM |
| COc1cc2ncnc(Nc3ccc(F)c(Cl)c3)c2cc1OCCCN1CCOCC1 [gefitinib] | – | – | – | – | – | – | – | – | – | – | – | – | – | activity in T790M mutant cell line H1975 [7]: greater than 3 uM |
